One block for each compound: values may come before it.
Experiments:
Format in all cases: biochemical
KLK7 = KLK7 (Homo sapiens, UniProt P49862); experiment: KLK7 enzyme inhibition assay, fluorogenic substrate Suc-Leu-Leu-Val-Tyr-AMC; details: for IC50: Table A, read-out: IC50 (μM) KLK7; for IC50 / inhibition at 100 µM / inhibition at 10 µM / inhibition at 50 µM: 37° C., 15 min of incubation, pH 8; for selective activity against enzyme: KLK7: Table B, among KLK5, KLK7 and KLK14
Protocol: (§1) Kallikreins KLK5, KLK7 and KLK14 activities were determined by monitoring the hydrolysis of the appropriate fluorogenic substrate (λexc=355, λem=460 nm) for 15 min at 37° C. in the presence of the untreated kallikrein (control) or kallikrein that had been incubated with a test compound. Substrate and compounds were previously dissolved in DMSO, with the final solvent concentration kept constant at 2% (v/v) (KLK 5 and 14), and 4% (v/v) (KLK7). The composition of the activity buffers (pH 8.0) was 100 mM Tris-HCl, 150 mM NaCl, 0.01% (v/v) Tween 20 for the KLK5 assay, and 100 mM Tris-HCl, 1M NaCl, 0.01% (v/v) Tween 20 in the KLK 7 and 14 assays. The final concentrations were 0.6 nM (KLK5) and 100 μM (Boc-Val-Pro-Arg-AMC) (KLK5 assay), 8 nM (KLK7) and 40 μM (Suc-Leu-Leu-Val-Tyr-AMC, AMC: 7-amino-4-methyl-coumarin) (KLK7 assay), and 0.17 nM (KLK14) and 10 μM (Boc-Val-Pro-Arg-AMC) (KLK14 assay). Using the appropriate substrate, the coumarinic compounds (0.01-100 μM) were tested in duplicate for each inhibitor concentration to detect their inhibitory potential. The enzyme and the inhibitors were incubated for 15 min before the determination of the enzyme activity. Initial rates determined in control experiments (V0) were considered to be 100% of the peptidase activity; initial rates below 100% were considered to be inhibitions. The inhibitory activity of compounds was expressed as IC50 (inhibitor concentrations giving 50% inhibition). The values of IC50 were calculated by fitting the experimental data to the equation: % Inhibition=100×(1−Vi/V0)=100[I]0/(IC50+[I]0), or equation: % Inhibition=100[I]0^nH/(IC50^nH+[I]0^nH),nH is the Hill number.
(§2) The tests were realized at 37° C. after 15 min of incubation at pH 8.

KLK14 = biological target: T1, KLK14 (Homo sapiens, UniProt Q9P0G3); experiment: KLK14 enzyme inhibition assay, fluorogenic substrate Boc-Val-Pro-Arg-AMC; details: for inhibition at 50 µM / inhibition at 100 µM / IC50: 37° C., 15 min of incubation, pH 8; for selective activity against enzyme: KLK14: Table B, among KLK5, KLK7 and KLK14; for IC50: Table A, read-out: IC50 (μM) KLK14
T1 sequence (Q9P0G3 25-251): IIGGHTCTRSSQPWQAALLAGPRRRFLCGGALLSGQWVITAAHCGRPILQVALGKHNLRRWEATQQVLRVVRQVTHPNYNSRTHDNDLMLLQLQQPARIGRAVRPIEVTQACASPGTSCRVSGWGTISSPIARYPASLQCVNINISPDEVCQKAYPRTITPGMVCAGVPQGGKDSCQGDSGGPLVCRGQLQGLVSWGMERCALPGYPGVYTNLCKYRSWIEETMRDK
Protocol: as §1, §2

KLK5 = biological target: T2, KLK5 (Homo sapiens, UniProt Q9Y337); experiment: KLK5 enzyme inhibition assay, fluorogenic substrate Boc-Val-Pro-Arg-AMC; details: for inhibition at 100 µM / IC50 / inhibition at 50 µM: 37° C., 15 min of incubation, pH 8; for IC50: Table A, read-out: IC50 (μM) KLK5; for selective activity against enzyme: KLK5: Table B, among KLK5, KLK7 and KLK14
T2 sequence (Q9Y337 23-293): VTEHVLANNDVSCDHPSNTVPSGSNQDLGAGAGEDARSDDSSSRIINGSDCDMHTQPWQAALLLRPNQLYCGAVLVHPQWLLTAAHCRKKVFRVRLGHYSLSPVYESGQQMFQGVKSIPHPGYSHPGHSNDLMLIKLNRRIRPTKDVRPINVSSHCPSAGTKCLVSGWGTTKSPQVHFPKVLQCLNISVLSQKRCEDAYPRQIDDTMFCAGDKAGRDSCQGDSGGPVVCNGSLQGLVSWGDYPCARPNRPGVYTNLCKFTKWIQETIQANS
Protocol: as §1, §2

Chain of KLK7 (P49862 30-253): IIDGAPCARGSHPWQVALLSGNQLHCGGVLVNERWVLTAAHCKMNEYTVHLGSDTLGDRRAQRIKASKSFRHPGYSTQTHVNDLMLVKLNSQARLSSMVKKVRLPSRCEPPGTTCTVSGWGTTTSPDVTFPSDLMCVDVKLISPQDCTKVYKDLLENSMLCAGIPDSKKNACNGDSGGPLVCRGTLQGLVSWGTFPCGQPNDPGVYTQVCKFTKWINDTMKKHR

- IC50 (KLK7): 5.01 ± 0.4 µM
- inhibition at 50 µM (KLK14): 60%
Compound: CC(=O)OCc1ccc2oc(=O)c(C(=O)Oc3cc(Cl)ccc3Cl)cc2c1 [CFL4]

- inhibition at 100 µM (KLK7): 33%
- inhibition at 100 µM (KLK14): 33%
Compound: O=C(Oc1cc(F)ccc1F)c1cc2ccccc2oc1=O [CFL7]

- IC50 (KLK7): 0.352 ± 0.055 µM
- selective activity against enzyme: KLK7 (KLK7): KLK7
- inhibition at 100 µM (KLK5): 47%
- inhibition at 100 µM (KLK14): 45%
Compound: O=C(Oc1cc(F)ccc1Br)c1cc2cc(CCl)ccc2oc1=O [CFL15]

- IC50 (KLK7): 0.9 ± 0.4 µM
- inhibition at 100 µM (KLK5): 40%
- inhibition at 100 µM (KLK14): 73%
Compound: O=C(Oc1cc(F)ccc1[N+](=O)[O-])c1cc2cc(CCl)ccc2oc1=O [CFL16]

- inhibition at 100 µM (KLK7): 33%
- inhibition at 50 µM (KLK14): 50%
- selective activity against enzyme: KLK14 (KLK14): KLK14
Compound: CC(=O)OCc1ccc2oc(=O)c(C(=O)Oc3cc(F)ccc3Br)cc2c1 [CFL17]

- IC50 (KLK5): 44 ± 10 µM
- IC50 (KLK14): 68 ± 9 µM
Compound: Cc1ccc2oc(=O)c(C(=O)Oc3cc(F)ccc3[N+](=O)[O-])cc2c1 [CFL25]

- inhibition at 100 µM (KLK7): 55%
- inhibition at 100 µM (KLK14): 71%
- selective activity against enzyme: KLK14 (KLK14): KLK14
Compound: Cc1cc(OC(=O)c2cc3cc(CCl)ccc3oc2=O)ccc1Cl [MFS35]

- inhibition at 10 µM (KLK7): 52%
- selective activity against enzyme: KLK7 (KLK7): KLK7
Compound: CC(=O)OCc1ccc2oc(=O)c(C(=O)Oc3ccccc3Br)cc2c1 [SMB26]

- inhibition at 50 µM (KLK7): 42%
- inhibition at 50 µM (KLK14): 27%
Compound: CC(=O)OCc1ccc2oc(=O)c(C(=O)Oc3ccccc3Cl)cc2c1 [SMB27]

Further lines, the compound ahead of its results:

Compound: O=C(Oc1cc([N+](=O)[O-])ccc1[N+](=O)[O-])c1cc2cc(CCl)ccc2oc1=O [CFL21]
- inhibition at 100 µM (KLK7): 22%
- IC50 (KLK5): 121 µM
- inhibition at 100 µM (KLK14): 43%
- selective activity against enzyme: KLK14 (KLK14): KLK14

Compound: CCOC(=O)c1cc2cc(C)ccc2oc1=O [Compound D5]
- inhibition at 100 µM (KLK7): 61%
- inhibition at 100 µM (KLK5): 90%
- inhibition at 100 µM (KLK14): 38%

Compound: CC(=O)c1cc2cc(C)ccc2oc1=O [Compound D9]
- inhibition at 100 µM (KLK5): 80%
- selective activity against enzyme: KLK5 (KLK5): KLK5
- inhibition at 100 µM (KLK14): 40%

Compound: COC(=O)c1ccccc1OC(=O)c1cc2cc(CCl)ccc2oc1=O [IK1]
- IC50 (KLK7): 2.7 ± 0.1 µM
- IC50 (KLK5): 26.3 ± 1.4 µM
- IC50 (KLK14): 38 ± 5 µM

Compound: O=C(O)c1ccc(Cl)cc1OC(=O)c1cc2cc(CCl)ccc2oc1=O [IK5]
- IC50 (KLK7): 5.8 ± 0.2 µM
- IC50 (KLK5): 36.9 ± 4.2 µM
- IC50 (KLK14): 89 ± 10 µM

Compound: COC(=O)c1ccccc1OC(=O)c1cc2cc(COC(C)=O)ccc2oc1=O [IK8]
- IC50 (KLK7): 64.3 ± 2.7 µM
- IC50 (KLK5): ~40 µM
- inhibition at 100 µM (KLK14): 64%

Compound: CC(=O)OCc1ccc2oc(=O)c(C(=O)Oc3cccc(Br)c3)cc2c1 [IK9]
- inhibition at 50 µM (KLK5): 22%
- selective activity against enzyme: KLK5 (KLK5): KLK5

Compound: CC(=O)OCc1ccc2oc(=O)c(C(=O)Oc3cccc(F)c3)cc2c1 [IK10]
- inhibition at 50 µM (KLK5): 23%
- selective activity against enzyme: KLK5 (KLK5): KLK5

Compound: O=C(O)c1ccccc1OC(=O)c1cc2cc(CCl)ccc2oc1=O [IK11]
- inhibition at 100 µM (KLK7): 63%
- inhibition at 50 µM (KLK5): 37.4%
- IC50 (KLK14): 43 ± 4 µM

Compound: COC(=O)c1ccc(OC(=O)c2cc3cc(CCl)ccc3oc2=O)cc1 [IK13]
- inhibition at 100 µM (KLK7): 34%
- inhibition at 100 µM (KLK14): 72%
- selective activity against enzyme: KLK14 (KLK14): KLK14

Compound: NCc1ccc2oc(=O)c(C(=O)Oc3cccc(Br)c3)cc2c1 [IK48]
- IC50 (KLK7): 9.7 ± 1.3 µM
- inhibition at 50 µM (KLK5): 27%
- inhibition at 50 µM (KLK14): 32%

Compound: CC(=O)NCc1ccc2oc(=O)c(C(=O)Oc3cccc(Br)c3)cc2c1 [IK49]
- inhibition at 10 µM (KLK7): 54%
- selective activity against enzyme: KLK7 (KLK7): KLK7

Compound: CC(=O)NCc1ccc2oc(=O)c(C(=O)Oc3cccc(Cl)c3)cc2c1 [IK53]
- inhibition at 10 µM (KLK7): 54%
- selective activity against enzyme: KLK7 (KLK7): KLK7

Compound: O=C(Oc1cncc(Cl)c1)c1cc2cc(CCl)ccc2oc1=O [LP2]
- IC50 (KLK7): 0.128 ± 0.03 µM
- selective activity against enzyme: KLK7 (KLK7): KLK7

Compound: O=C(Oc1cccc(Cl)c1)c1cc2cc(CCl)ccc2oc1=O [LP8]
- IC50 (KLK7): 0.103 ± 0.005 µM
- selective activity against enzyme: KLK7 (KLK7): KLK7
- inhibition at 100 µM (KLK5): 49%
- inhibition at 100 µM (KLK14): 40%

Compound: O=C(Oc1ccccc1I)c1cc2cc(CCl)ccc2oc1=O [LP15]
- IC50 (KLK7): 1.9 ± 0.1 µM
- inhibition at 100 µM (KLK14): 35%

Compound: O=C(Oc1ccc(I)cc1)c1cc2cc(CCl)ccc2oc1=O [LP16]
- inhibition at 50 µM (KLK7): 47%

Compound: CCC(=O)OCc1ccc2oc(=O)c(C(=O)Oc3cncc(Cl)c3)cc2c1 [LP42]
- inhibition at 100 µM (KLK7): 52%
- selective activity against enzyme: KLK7 (KLK7): KLK7
- inhibition at 50 µM (KLK5): 22%

Compound: CCOC(=O)c1cc2cc(COC(C)=O)ccc2oc1=O [LP43]
- inhibition at 100 µM (KLK7): 30%
- inhibition at 100 µM (KLK5): 49%
- inhibition at 100 µM (KLK14): 49%

Compound: CC(=O)OCc1ccc2oc(=O)c(C(=O)Oc3cccc(Cl)c3)cc2c1 [LP46]
- inhibition at 50 µM (KLK5): 31%
- IC50 (KLK14): 31 ± 6 µM

Compound: O=C(Oc1cccc(F)c1)c1cc2cc(CCl)ccc2oc1=O [LP51]
- IC50 (KLK7): 0.25 ± 0.01 µM
- selective activity against enzyme: KLK7 (KLK7): KLK7
- inhibition at 50 µM (KLK5): 26%
- inhibition at 100 µM (KLK14): 30%

Compound: O=C(Oc1ccccc1[N+](=O)[O-])c1cc2cc(CCl)ccc2oc1=O [LP60]
- IC50 (KLK7): 1.44 ± 0.02 µM
- IC50 (KLK5): 112 ± 6 µM
- inhibition at 100 µM (KLK14): 46%

Compound: NCc1ccc2oc(=O)c(C(=O)Oc3ccccc3)cc2c1 [LP71]
- IC50 (KLK5): 182 ± 14 µM

Compound: O=C(Oc1cc(Cl)cc(Cl)c1)c1cc2cc(CCl)ccc2oc1=O [LP75]
- IC50 (KLK7): 0.136 ± 0.012 µM
- IC50 (KLK5): 80 ± 8 µM

Compound: O=C(Oc1ccccc1)c1cc2cc(O)ccc2oc1=O [MH8]
- inhibition at 50 µM (KLK7): 25%
- selective activity against enzyme: KLK7 (KLK7): KLK7

Compound: O=C(Oc1ccccc1Cl)c1cc2cc(O)ccc2oc1=O [MH14]
- inhibition at 50 µM (KLK7): 35%
- selective activity against enzyme: KLK7 (KLK7): KLK7

Compound: CS(=O)(=O)NCc1ccc2oc(=O)c(C(=O)Oc3cccc(Cl)c3)cc2c1 [MH24]
- IC50 (KLK7): 33.2 ± 1.4 µM
- inhibition at 50 µM (KLK14): 42%

Compound: CC(=O)NCc1ccc2oc(=O)c(C(=O)Oc3ccc(Br)cc3)cc2c1 [MH52]
- inhibition at 10 µM (KLK7): 58%
- selective activity against enzyme: KLK7 (KLK7): KLK7

Compound: CC(=O)OCc1ccc2oc(=O)c(C(=O)Oc3ccccc3I)cc2c1 [SMB28, 2-iodophenyl 6-acetoxymethyl-2-oxo-2H-1-benzopyran-3-carboxylate]
- IC50 (KLK7): 82.2 ± 13.2 µM
- selective activity against enzyme: KLK7 (KLK7): KLK7

Compound: CC(=O)OCc1ccc2oc(=O)c(C(=O)Oc3ccccc3C#N)cc2c1 [SMB33, 2-cyanophenyl 6-acetoxymethyl-2-oxo-2H-1-benzopyran-3-carboxylate]
- inhibition at 50 µM (KLK14): 27%
- selective activity against enzyme: KLK14 (KLK14): KLK14

Source: patent US9814696B2, “Use of coumarin derivatives for the preparation of drugs for treating skin diseases” (UNIVERSITE PIERRE ET MARIE CURIE (PARIS 6), priority 2011, dated 2017)
